Measurements from PubChem BioAssay AID248 (DTP/NCI, 2004).
Values joined by “and” are separate entries in the source; they are usually repeats but may differ in a detail not shown here. Identical values can stand only once. Toxic doses and inconclusive results are not listed. Rule as the data show it: active = T/C of 150% or more; inactive = T/C below 125%.

System: L1210 leukemia ip in BDF1 mice, survival T/C
Assay: NCI In Vivo Anticancer Drug Screen. Data for tumor model L1210 Leukemia (intraperitoneal) in B6D2F1 (BDF1) mice
Settings: endpoint: mean survival time, higher = longer survival
Procedure, shortened: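 Survival endpoint. Drug-treated group vs vehicle group, expressed as T divided by C. Tumor passaged by transplantation.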

[1] = dose: 100.0 mg/kg/injection, schedule: Q01DX001 (ip), vehicle: saline
[2] = dose: 200.0 mg/kg/injection, schedule: Q01DX001 (ip), vehicle: saline
[3] = dose: 400.0 mg/kg/injection, schedule: Q01DX001 (ip), vehicle: saline
[4] = dose: 200.0 mg/kg/injection, schedule: Q01DX001 (ip), vehicle: carboxymethylcellulose (CMC)
[5] = dose: 400.0 mg/kg/injection, schedule: Q01DX001 (ip), vehicle: carboxymethylcellulose (CMC)

Measured: T/C

CC1(C)CCC(C)(C)C(=O)C1=O
inactive: dose: 10.0 mg/kg/injection, schedule: Q01DX009 (ip), vehicle: Klucel (hydroxypropylcellulose) (HPC) 105 % of control | dose: 10.0 mg/kg/injection, schedule: Q04DX003 (ip), vehicle: Klucel (hydroxypropylcellulose) (HPC) 97 % of control | dose: 20.0 mg/kg/injection, schedule: Q01DX001 (ip), vehicle: Klucel (hydroxypropylcellulose) (HPC) 103 % of control | dose: 20.0 mg/kg/injection, schedule: Q01DX009 (ip), vehicle: Klucel (hydroxypropylcellulose) (HPC) 89 % of control | dose: 20.0 mg/kg/injection, schedule: Q04DX003 (ip), vehicle: Klucel (hydroxypropylcellulose) (HPC) 102 % of control | dose: 40.0 mg/kg/injection, schedule: Q01DX001 (ip), vehicle: Klucel (hydroxypropylcellulose) (HPC) 102 % of control | dose: 40.0 mg/kg/injection, schedule: Q01DX009 (ip), vehicle: Klucel (hydroxypropylcellulose) (HPC) 89 % of control | dose: 40.0 mg/kg/injection, schedule: Q04DX003 (ip), vehicle: Klucel (hydroxypropylcellulose) (HPC) 100 % of control

Nc1ccc(P(=O)(Nc2cccc(Cl)c2)Nc2cccc(Cl)c2)cc1
inactive: dose: 100.0 mg/kg/injection, schedule: Q04DX003 (ip), vehicle: acetone 108 % of control | dose: 200.0 mg/kg/injection, schedule: Q04DX003 (ip), vehicle: acetone 92 % of control | dose: 400.0 mg/kg/injection, schedule: Q04DX003 (ip), vehicle: acetone 92 % of control

Oc1cccc(/C=N/NC(=S)Nc2ccccc2)c1
inactive: dose: 100.0 mg/kg/injection, schedule: Q01DX009 (ip), vehicle: Klucel (hydroxypropylcellulose) (HPC) 104 % of control | dose: 200.0 mg/kg/injection, schedule: Q01DX009 (ip), vehicle: Klucel (hydroxypropylcellulose) (HPC) 96 % of control | dose: 400.0 mg/kg/injection, schedule: Q01DX009 (ip), vehicle: Klucel (hydroxypropylcellulose) (HPC) 93 % of control

CCN1CC1 (tested in a mixture with another compound)
inactive: dose: 1.56 mg/kg/injection, schedule: Q01DX001 (ip), vehicle: Klucel (hydroxypropylcellulose) (HPC) 101 % of control | dose: 3.12 mg/kg/injection, schedule: Q01DX001 (ip), vehicle: Klucel (hydroxypropylcellulose) (HPC) 99 % of control | dose: 6.25 mg/kg/injection, schedule: Q01DX001 (ip), vehicle: Klucel (hydroxypropylcellulose) (HPC) 104 % of control | dose: 25.0 mg/kg/injection, schedule: Q01DX001 (ip), vehicle: other 111 % of control

CC1(c2ccccc2)CC1(Br)Br (centres undefined)
inactive: dose: 100.0 mg/kg/injection, schedule: Q04DX002 (ip), vehicle: saline 95 % of control | dose: 200.0 mg/kg/injection, schedule: Q04DX002 (ip), vehicle: saline 95 % of control | dose: 400.0 mg/kg/injection, schedule: Q04DX002 (ip), vehicle: saline 100 % of control

CCC1(C)CC(=O)NC(=O)C1.[Tl]
inactive: dose: 3.12 mg/kg/injection, schedule: Q01DX009 (ip), vehicle: water 100 % of control | dose: 3.12 mg/kg/injection, schedule: Q04DX003 (ip), vehicle: water 97 % of control | dose: 6.25 mg/kg/injection, schedule: Q01DX009 (ip), vehicle: water 97 % of control | dose: 6.25 mg/kg/injection, schedule: Q04DX003 (ip), vehicle: water 100 % of control | dose: 12.5 mg/kg/injection, schedule: Q04DX003 (ip), vehicle: water 105 % of control

C1=CCNCC1
inactive: [1] 101 % of control | [2] 98 % of control | [3] 103 % of control

CP1(=O)CCC(=O)C1 (centres undefined)
inactive: dose: 100.0 mg/kg/injection, schedule: Q04DX003 (ip), vehicle: saline 98 % of control | dose: 200.0 mg/kg/injection, schedule: Q04DX003 (ip), vehicle: saline 110 % of control | dose: 400.0 mg/kg/injection, schedule: Q04DX003 (ip), vehicle: saline 104 % of control

C=CC1=CC(=O)OC1=O
inactive: dose: 10.0 mg/kg/injection, schedule: Q01DX001 (ip), vehicle: saline 88 % of control

Cc1cccc(OS(=O)(=O)c2ccccc2[N+](=O)[O-])c1
inactive: dose: 100.0 mg/kg/injection, schedule: Q01DX009 (ip), vehicle: saline sonified 103 % of control | dose: 100.0 mg/kg/injection, schedule: Q04DX003 (ip), vehicle: Klucel (hydroxypropylcellulose) (HPC) 93 % of control | dose: 200.0 mg/kg/injection, schedule: Q04DX003 (ip), vehicle: Klucel (hydroxypropylcellulose) (HPC) 96 % of control | dose: 400.0 mg/kg/injection, schedule: Q01DX009 (ip), vehicle: saline sonified 111 % of control | dose: 400.0 mg/kg/injection, schedule: Q04DX003 (ip), vehicle: Klucel (hydroxypropylcellulose) (HPC) 90 % of control

COC(=O)C#CC(=O)OC
inactive: dose: 3.13 mg/kg/injection, schedule: Q04DX003 (ip), vehicle: Klucel (hydroxypropylcellulose) (HPC) 101 % of control | dose: 6.25 mg/kg/injection, schedule: Q04DX003 (ip), vehicle: Klucel (hydroxypropylcellulose) (HPC) 99 % of control | dose: 12.5 mg/kg/injection, schedule: Q04DX003 (ip), vehicle: Klucel (hydroxypropylcellulose) (HPC) 111 % of control

COc1cc(/C=N/Nc2nnc(N/N=C/c3cc(I)c(O)c(OC)c3)c3ccccc23)cc(I)c1O
inactive: dose: 50.0 mg/kg/injection, schedule: Q01DX001 (ip), vehicle: saline 95 % of control | [1] 95 % of control | [2] 101 % of control | [3] 97 % of control

O=C1NC(=O)C2(CCCc3ccc(N(CCCl)CCCl)cc32)N1 (centres undefined)
inactive: dose: 30.0 mg/kg/injection, schedule: Q01DX015 (ip), vehicle: carboxymethylcellulose (CMC) 102 % of control | dose: 60.0 mg/kg/injection, schedule: Q01DX015 (ip), vehicle: carboxymethylcellulose (CMC) 120 % of control | dose: 120.0 mg/kg/injection, schedule: Q01DX015 (ip), vehicle: carboxymethylcellulose (CMC) 123 % of control | dose: 240.0 mg/kg/injection, schedule: Q01DX015 (ip), vehicle: carboxymethylcellulose (CMC) 107 % of control

CCCCCCCCCCCC1=C(O)C(=O)C(CC2=C(O)C(=O)C(CCCCCCCCCCC)=C(O)C2=O)=C(O)C1=O
inactive: [4] 100 % of control | [5] 103 % of control

C=CCNc1cc(NN)nn2nnnc12
inactive: dose: 100.0 mg/kg/injection, schedule: Q04DX002 (ip), vehicle: Klucel (hydroxypropylcellulose) (HPC) 108 % of control | dose: 200.0 mg/kg/injection, schedule: Q04DX002 (ip), vehicle: Klucel (hydroxypropylcellulose) (HPC) 104 % of control | dose: 400.0 mg/kg/injection, schedule: Q04DX002 (ip), vehicle: Klucel (hydroxypropylcellulose) (HPC) 123 % of control

O=C(Nc1ccc(C(=O)O)cc1)Nc1cc(C(F)(F)F)ccc1Cl
inactive: dose: 100.0 mg/kg/injection, schedule: Q01DX001 (ip), vehicle: carboxymethylcellulose (CMC) 93 % of control | dose: 100.0 mg/kg/injection, schedule: Q01DX009 (ip), vehicle: carboxymethylcellulose (CMC) 95 % of control and 110 % of control | dose: 100.0 mg/kg/injection, schedule: Q04DX002 (ip), vehicle: carboxymethylcellulose (CMC) 95 % of control and 97 % of control | dose: 100.0 mg/kg/injection, schedule: Q04DX003 (ip), vehicle: carboxymethylcellulose (CMC) 94 % of control | [4] 93 % of control | dose: 200.0 mg/kg/injection, schedule: Q01DX009 (ip), vehicle: carboxymethylcellulose (CMC) 100 % of control and 90 % of control | dose: 200.0 mg/kg/injection, schedule: Q04DX002 (ip), vehicle: carboxymethylcellulose (CMC) 93 % of control and 97 % of control | dose: 200.0 mg/kg/injection, schedule: Q04DX003 (ip), vehicle: carboxymethylcellulose (CMC) 97 % of control | [5] 93 % of control | dose: 400.0 mg/kg/injection, schedule: Q01DX009 (ip), vehicle: carboxymethylcellulose (CMC) 92 % of control | dose: 400.0 mg/kg/injection, schedule: Q04DX002 (ip), vehicle: carboxymethylcellulose (CMC) 96 % of control and 90 % of control | dose: 400.0 mg/kg/injection, schedule: Q04DX003 (ip), vehicle: carboxymethylcellulose (CMC) 96 % of control

C(=N\Nc1ccccc1)/C(=N\Nc1ccccc1)c1ccccc1
inactive: dose: 100.0 mg/kg/injection, schedule: Q04DX003 (ip), vehicle: saline with Tween-80 103 % of control | dose: 200.0 mg/kg/injection, schedule: Q04DX003 (ip), vehicle: saline with Tween-80 97 % of control | dose: 400.0 mg/kg/injection, schedule: Q04DX003 (ip), vehicle: saline with Tween-80 98 % of control
